The values that follow come from paper PMC6675120, “Potent and selective inhibitors for M32 metallocarboxypeptidases identified from high-throughput screening of anti-kinetoplastid chemical boxes” (PLoS Neglected Tropical Diseases, 2019).

A word on the IC50: it is the point on the concentration scale where inhibition reaches its midpoint. Read a low IC50 as inhibition by little substance.

One assay has as its target TbMCP-1 (Trypanosoma brucei, UniProt Q386R0). Nature of the assay: Continuous fluorogenic (FRET) TbMCP-1 assay with Abz-RFFK(Dnp)-OH, primary and secondary screening. In kind it is biochemical. The conditions noted are these: for TbMCP-1 2º/1º ratio: secondary (31,5 µM) / primary (25 µM) inhibition; for TbMCP-1 Primary screening Inhibition (%): single inhibitor concentration 25 µM; for TbMCP-1 Secondary screening Inhibition (%): single inhibitor concentration 31,5 µM; for TbMCP-1 Hill Slope: four-parameter Hill fit of dose-response curve. On the procedure:
(§1) TcMCP-1 (MEROPS ID: M32.003) and TbMCP-1 were expressed as GST fusion proteins in E. coli BL21 (DE3) Codon Plus and purified as previously described.
(§2) TbMCP-1 and TcMCP-1 activities were assayed fluorometrically with Abz-RFFK(Dnp)-OH and Abz-LKFK(Dnp)-OH substrates, respectively, in 100 mM MOPS pH 7,2 containing 0,01% Triton X-100. Assays were performed in solid black 384-well plates (final reaction volume ~80 μL) and the hydrolysis of the K(Dnp)-OH group was monitored continuously at 30 °C with a Beckman Coulter DTX 880 Multimode Reader (Radnor, Pennsylvania, USA) using standard 320 nm excitation and 420 nm emission filter set.
(§3) In all cases, EDTA (final concentration 31,25 mM) was used as positive inhibition control.
(§4) Then, 40 μL of 100 mM MOPS, 0,01% Triton X-100 pH 7,2 containing TbMCP-1 (2,50 nM) or TcMCP-1 (0,34 nM) were added to each well, plates were homogenized (30 seg, orbital, medium intensity) and each well subjected to a single autofluorescence read (ex/em = 320/420 nm). Plates were incubated in darkness for 15 min at 30 °C and then 40 μL of Abz-RFFK(Dnp)-OH (4 μM) or Abz-LKFK(Dnp)-OH (0,8 μM) in assay buffer were added to each well to start the reaction. After homogenization (30 seg, orbital, medium intensity), the fluorescence of the Abz group (ortho-aminobenzoic acid) (ex/em = 320/420 nm) was acquired kinetically for each well (8 read cycles, one cycle every 300 seconds). Considering our previous experiences, the auto-fluorescent cut-off was arbitrarily set at 2x10^5 RFU to discard highly interfering compounds. All compounds were assayed in singlet (without replicates) due to the limited availability of stocks.
(§5) Raw screening measurements were used to determine the slope (dF/dt) of progression curves by linear regression for control and non-interfering compound wells. In the case of control-dependent hit selection criteria, percent inhibition percentage (%Inh) was calculated for each compound according to the following equation: Inh=100∙[1−(dF/dt^WELL−μ^C−)/(μ^C+−μ^C−)] (1) where dF/dt^WELL represents the slope of each compound well and μ^C+ and μ^C− the average of MCP (no-inhibition) and substrate (no-enzyme) controls, respectively.
(§6) To avoid any positional and/or association bias, we randomly defined the row position for each compound. One μL of compounds stock (10 mM in DMSO) and EDTA (31,25 mM) were added to the first well of column 1, followed by addition of 40 μL of 100 mM MOPS, 0,01% Triton X-100 pH 7,2 buffer. After addition of 20 μL of the same buffer to subsequent wells of the plate, 22 serial 2-fold dilutions were made horizontally. The last two positions of every row were used, alternatively, for C^+ and C^− controls to reduce any positional and/or association bias. Then, 20 μL of activity buffer containing TbMCP-1 or TcMCP-1 were added to each well, except for those corresponding to C^−; completed with 20 μL of activity buffer. After homogenization, 15 minutes of incubation at 30°C and autofluorescence measurement, the substrate (in activity buffer) was added to the previous mix. Data collection and processing were performed exactly as described above. Percentage of M32 MCPs residual activity was calculated for each condition according to the following equation: %Res.Act^MCP=100∙[(dF/dt^WELL−μ^C−)/(μ^C+−μ^C−)] (2) where dF/dt^WELL represents the slope of each compound well and μ^C+ and μ^C− the average of MCP (no-inhibition) and substrate (no-enzyme) controls, respectively.

In the next assay the target is TcMCP-1 (Trypanosoma cruzi, UniProt Q6ZXC0). Nature of the assay: Continuous fluorogenic (FRET) TcMCP-1 assay with Abz-LKFK(Dnp)-OH, primary and secondary screening. In kind it is biochemical. The following applies: for TcMCP-1 Hill Slope: four-parameter Hill fit of dose-response curve; for TcMCP-1 2º/1º ratio: secondary (31,5 µM) / primary (25 µM) inhibition; for TcMCP-1 Primary screening Inhibition (%): single inhibitor concentration 25 µM; for TcMCP-1 Secondary screening Inhibition (%): single inhibitor concentration 31,5 µM. On the procedure:
as §1, §2, §3, §4, §5
as §6, with “Compounds selected from primary screening were re-tested in a dose-response manner (final concentration ranging from […] to 62,5 μM) using identical assay conditions. To” for “To”

Chain of TcMCP-1 (Q6ZXC0 entry or part of it): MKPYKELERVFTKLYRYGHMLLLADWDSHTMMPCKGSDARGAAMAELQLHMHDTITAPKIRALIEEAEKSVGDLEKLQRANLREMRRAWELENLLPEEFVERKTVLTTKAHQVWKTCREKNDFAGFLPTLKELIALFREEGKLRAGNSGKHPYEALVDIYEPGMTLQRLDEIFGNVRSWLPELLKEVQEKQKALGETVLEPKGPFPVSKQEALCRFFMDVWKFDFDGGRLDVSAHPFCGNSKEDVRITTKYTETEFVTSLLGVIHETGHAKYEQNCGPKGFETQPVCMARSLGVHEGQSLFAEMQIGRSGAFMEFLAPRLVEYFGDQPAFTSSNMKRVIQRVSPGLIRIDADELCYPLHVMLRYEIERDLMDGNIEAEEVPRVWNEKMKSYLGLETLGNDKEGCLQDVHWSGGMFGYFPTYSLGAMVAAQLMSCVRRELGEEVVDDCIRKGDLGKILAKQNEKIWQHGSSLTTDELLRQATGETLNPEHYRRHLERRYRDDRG
Chain of TbMCP-1 (Q386R0 entry or part of it): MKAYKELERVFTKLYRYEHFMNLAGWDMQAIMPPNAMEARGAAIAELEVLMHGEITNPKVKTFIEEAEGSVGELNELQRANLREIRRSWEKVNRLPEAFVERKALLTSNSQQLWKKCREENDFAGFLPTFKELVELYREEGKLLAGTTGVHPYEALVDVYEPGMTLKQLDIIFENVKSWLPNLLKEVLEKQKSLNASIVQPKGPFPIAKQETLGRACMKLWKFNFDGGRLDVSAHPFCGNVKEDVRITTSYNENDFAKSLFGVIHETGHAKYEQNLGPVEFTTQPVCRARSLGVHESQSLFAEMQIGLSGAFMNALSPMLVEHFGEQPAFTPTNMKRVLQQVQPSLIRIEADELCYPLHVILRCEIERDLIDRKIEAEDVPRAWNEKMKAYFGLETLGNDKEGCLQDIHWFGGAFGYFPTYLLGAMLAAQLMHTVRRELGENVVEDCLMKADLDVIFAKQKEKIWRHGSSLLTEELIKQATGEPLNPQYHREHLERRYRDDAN

Turning to `O=C(NCC1CCCCC1)c1cc(=O)c2ccccc2o1` [TCMDC-123621], at TbMCP-1, the “TbMCP-1 2º/1º ratio” value is recorded as -0,05, the “TbMCP-1 Primary screening Inhibition (%)” value was 44,99% and the “TbMCP-1 Secondary screening Inhibition (%)” value was -2,11%.

With `CC(C)N(C(=O)CN1C(=O)C(N)C(=O)N(c2ccccc2)c2ccccc21)c1ccccc1` (centres unmarked) [TCMDC-143071], at TcMCP-1, the IC50 was 38.9 µM, the “TcMCP-1 Hill Slope” value is on record as -1,235, the “TcMCP-1 2º/1º ratio” value was 0,63 and the “TcMCP-1 Primary screening Inhibition (%)” value is 45,44%. The “TcMCP-1 Secondary screening Inhibition (%)” value at TcMCP-1 is 28,65%.

Regarding `COc1cccc(-c2cc(C(F)(F)F)nc(-n3ccc([N+](=O)[O-])n3)n2)c1` [TCMDC-143105], at TcMCP-1, the “TcMCP-1 2º/1º ratio” value was 0,34, the “TcMCP-1 Primary screening Inhibition (%)” value is listed as 52,36% and the “TcMCP-1 Secondary screening Inhibition (%)” value is 17,76%.

Turning to `N#Cc1cc([N+](=O)[O-])ccc1NC1CCCCCC1` [TCMDC-143143], at TbMCP-1, 21.8 µM corresponded to half-maximal inhibition (IC50), the “TbMCP-1 Hill Slope” value is given as -1,466, the “TbMCP-1 2º/1º ratio” value is 1,61 and the “TbMCP-1 Primary screening Inhibition (%)” value is on record as 41,27%. For the same molecule, the “TbMCP-1 Secondary screening Inhibition (%)” value at TbMCP-1 is reported as 66,27%.

For the molecule `Cc1c([N+](=O)[O-])c(C(=O)Nc2sc3c(c2C#N)CCC(C)C3)nn1C` (centres unmarked) [TCMDC-143155], on TbMCP-1, the “TbMCP-1 2º/1º ratio” value is 0,23, the “TbMCP-1 Primary screening Inhibition (%)” value is reported as 44,57% and the “TbMCP-1 Secondary screening Inhibition (%)” value is reported as 10,36%.

For the molecule `Cl.Cl.O=c1ccc2ccc(F)c3c2n1C[C@H]3CN1CCN(CC(O)c2cc3c(cn2)OCS3)CC1` (some centres unmarked) [TCMDC-143158], at TbMCP-1, the IC50 amounted to 27.6 µM, the “TbMCP-1 Hill Slope” value is given as -1,014, the “TbMCP-1 2º/1º ratio” value is on record as 1,19 and the “TbMCP-1 Primary screening Inhibition (%)” value is 44,84%. Further, the “TbMCP-1 Secondary screening Inhibition (%)” value on TbMCP-1 is reported as 53,51%.

Turning to `O=C(c1cc2cc(Cl)ccc2[nH]1)N1CCCCC1c1cccnc1` (centres unmarked) [TCMDC-143159], at TbMCP-1, the “TbMCP-1 2º/1º ratio” value is recorded as 0,25, the “TbMCP-1 Primary screening Inhibition (%)” value was 52,96% and the “TbMCP-1 Secondary screening Inhibition (%)” value is 13,07%.

Take `CC1=C(C(=O)Nc2ccc(Cl)cc2)C(c2ccncc2)n2ncc(C(=O)Nc3ccccc3)c2N1` (centres unmarked) [TCMDC-143187]: on TbMCP-1, the IC50 was more than 60 µM, the “TbMCP-1 2º/1º ratio” value was 0,50, the “TbMCP-1 Primary screening Inhibition (%)” value was 48,70% and the “TbMCP-1 Secondary screening Inhibition (%)” value is given as 24,44%.

As to `Cc1ccc2c(c1)-c1onc(C(=O)N3CCCCC3c3cccnc3)c1CO2` (centres unmarked) [TCMDC-143191], on TbMCP-1, half-maximal inhibition (IC50) was put at 16.1 µM, the “TbMCP-1 Hill Slope” value is on record as -1,267, the “TbMCP-1 2º/1º ratio” value is recorded as 0,78 and the “TbMCP-1 Primary screening Inhibition (%)” value was 88,97%. Moreover, at TbMCP-1, the “TbMCP-1 Secondary screening Inhibition (%)” value is 69,40%.

Turning to `Cn1ccnc1CN1CCc2[nH]cnc2C1c1ccccc1OCc1ccccc1` (centres unmarked) [TCMDC-143242], on TcMCP-1, inhibition was half-maximal at 26.5 µM (IC50), the “TcMCP-1 Hill Slope” value was -1,237, the “TcMCP-1 2º/1º ratio” value is 1,02 and the “TcMCP-1 Primary screening Inhibition (%)” value was 51,89%. The “TcMCP-1 Secondary screening Inhibition (%)” value on TcMCP-1 is 52,68%.

For `O=C(N[C@H](CO)c1ccccc1)c1ccc(-c2c[nH]c3nccc(C(F)(F)F)c23)s1` [TCMDC-143254], on TbMCP-1, the IC50 was determined as 43.4 µM, the “TbMCP-1 Hill Slope” value is listed as -0,8163, the “TbMCP-1 2º/1º ratio” value is listed as 0,78 and the “TbMCP-1 Primary screening Inhibition (%)” value was 45,94%. The “TbMCP-1 Secondary screening Inhibition (%)” value at TbMCP-1 was 35,87%.

Regarding `O=C(NNC(=O)c1ccccn1)c1ccc(-c2ccccc2)cc1` [TCMDC-143263], at TcMCP-1, half-maximal inhibition (IC50) was put at 40.7 µM, the “TcMCP-1 Hill Slope” value is reported as -0,9946, the “TcMCP-1 2º/1º ratio” value was 0,31 and the “TcMCP-1 Primary screening Inhibition (%)” value is recorded as 48,44%. Further, the “TcMCP-1 Secondary screening Inhibition (%)” value at TcMCP-1 is on record as 14,84%.

With `CN(C)S(=O)(=O)c1ccc(Cl)c(C(=O)Nc2nc(-c3ccccn3)cs2)c1` [TCMDC-143265], at TbMCP-1, it took 44.2 µM to reach half-maximal inhibition (IC50), the “TbMCP-1 Hill Slope” value is -2,036, the “TbMCP-1 2º/1º ratio” value is listed as 0,40 and the “TbMCP-1 Primary screening Inhibition (%)” value was 59,46%. The “TbMCP-1 Secondary screening Inhibition (%)” value at TbMCP-1 is reported as 23,62%.

`CCC1Oc2cc(S(=O)(=O)N(C)CC(=O)N3CCc4ccccc4C3)c(C)cc2NC1=O` (centres unmarked) [TCMDC-143332]: at TbMCP-1, the IC50 turned out to be 23.3 µM, the “TbMCP-1 Hill Slope” value was -1,063, the “TbMCP-1 2º/1º ratio” value was 1,03 and the “TbMCP-1 Primary screening Inhibition (%)” value is recorded as 55,90%. Also, the “TbMCP-1 Secondary screening Inhibition (%)” value at TbMCP-1 is 57,63%.

On to `CC(=O)Nc1cccc(Nc2ncnc3nc[nH]c23)c1` [TCMDC-143399], for which, at TbMCP-1, the “TbMCP-1 2º/1º ratio” value is 0,19, the “TbMCP-1 Primary screening Inhibition (%)” value is 43,27% and the “TbMCP-1 Secondary screening Inhibition (%)” value is given as 8,15%.

Turning to `CN(C)c1ccc(-c2cc3nccnc3c(OC[C@H]3CCCNC3)n2)cn1.Cl` [TCMDC-143408], on TcMCP-1, the IC50 was 32.9 µM, the “TcMCP-1 Hill Slope” value is on record as -1,153, the “TcMCP-1 2º/1º ratio” value is given as 1,06 and the “TcMCP-1 Primary screening Inhibition (%)” value was 46,88%. In addition, on TcMCP-1, the “TcMCP-1 Secondary screening Inhibition (%)” value was 49,75%.

Take `CC(C)Oc1cccc(N2CCC(C(=O)N3CCCN(C(C)C)CC3)CC2)c1.Cl` [TCMDC-143432]: at TcMCP-1, half-maximal inhibition (IC50) required 26.3 µM, the “TcMCP-1 Hill Slope” value is given as -0,6129, the “TcMCP-1 2º/1º ratio” value is given as 1,27 and the “TcMCP-1 Primary screening Inhibition (%)” value is 42,37%. The “TcMCP-1 Secondary screening Inhibition (%)” value at TcMCP-1 is reported as 53,96%.

With `Cc1c(Nc2cc(C3CC3)n[nH]2)ccc(C#N)c1Cl.O=C(O)C(F)(F)F` [TCMDC-143454], at TbMCP-1, the IC50 was more than 60 µM, the “TbMCP-1 2º/1º ratio” value was 0,63, the “TbMCP-1 Primary screening Inhibition (%)” value was 52,66% and the “TbMCP-1 Secondary screening Inhibition (%)” value is 33,23%.

Turning to `CC(Cn1ccnc1)NC(=O)COc1ccc(Cl)c(Cl)c1` (centres unmarked) [TCMDC-143479], on TcMCP-1, the “TcMCP-1 2º/1º ratio” value is recorded as 0,31, the “TcMCP-1 Primary screening Inhibition (%)” value was 42,39% and the “TcMCP-1 Secondary screening Inhibition (%)” value is 13,15%.

Turning to `Cc1cc(C#N)c([N+](=O)[O-])cc1Br` [TCMDC-143541], on TbMCP-1, the “TbMCP-1 2º/1º ratio” value is 0,20, the “TbMCP-1 Primary screening Inhibition (%)” value is listed as 44,26% and the “TbMCP-1 Secondary screening Inhibition (%)” value is 8,89%.

As for `Cl.Cl.O=c1cc(NCCCNCc2cc(C(F)(F)F)cs2)[nH]c2ccccc12` [TCMDC-143645], on TbMCP-1, the IC50 was found to be 20.8 µM, the “TbMCP-1 Hill Slope” value is recorded as -1,127, the “TbMCP-1 2º/1º ratio” value is 1,27 and the “TbMCP-1 Primary screening Inhibition (%)” value was 42,78%. The “TbMCP-1 Secondary screening Inhibition (%)” value on TbMCP-1 is listed as 54,13%.
